From patent US8569484B2, “Heterocyclic urea derivatives and methods of use thereof” (Astrazeneca AB, priority 2009, dated 2013) come the findings set out here.

Values after ≈ are worked out from the molar mass of the structure shown.

Chain of S. aureus GyrB ATPase (P0AES4 whole entry): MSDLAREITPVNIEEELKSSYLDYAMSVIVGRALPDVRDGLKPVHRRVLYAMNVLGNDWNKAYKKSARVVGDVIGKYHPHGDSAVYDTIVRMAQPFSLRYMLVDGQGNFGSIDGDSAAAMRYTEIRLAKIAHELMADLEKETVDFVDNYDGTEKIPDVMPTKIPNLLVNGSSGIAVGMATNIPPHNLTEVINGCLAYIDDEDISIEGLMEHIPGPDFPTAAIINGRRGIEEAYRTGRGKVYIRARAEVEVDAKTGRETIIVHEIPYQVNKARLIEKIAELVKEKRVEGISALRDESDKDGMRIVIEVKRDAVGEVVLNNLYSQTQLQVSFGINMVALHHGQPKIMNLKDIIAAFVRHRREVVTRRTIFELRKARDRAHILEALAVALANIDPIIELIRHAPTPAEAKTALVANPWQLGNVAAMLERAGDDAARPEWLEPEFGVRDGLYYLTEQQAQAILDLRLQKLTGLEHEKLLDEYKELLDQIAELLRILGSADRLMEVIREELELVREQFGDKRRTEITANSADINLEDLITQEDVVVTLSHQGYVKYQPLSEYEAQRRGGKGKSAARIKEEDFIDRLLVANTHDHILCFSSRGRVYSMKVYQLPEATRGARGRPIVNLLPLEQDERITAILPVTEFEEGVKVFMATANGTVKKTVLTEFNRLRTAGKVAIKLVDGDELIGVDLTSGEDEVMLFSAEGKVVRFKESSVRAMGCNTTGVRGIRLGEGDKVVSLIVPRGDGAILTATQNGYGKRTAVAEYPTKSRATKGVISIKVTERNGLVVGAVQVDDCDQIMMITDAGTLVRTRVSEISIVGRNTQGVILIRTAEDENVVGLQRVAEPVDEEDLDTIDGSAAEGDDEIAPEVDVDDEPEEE
Chain of S. aureus GyrB ATPase (P0A0K8 whole entry): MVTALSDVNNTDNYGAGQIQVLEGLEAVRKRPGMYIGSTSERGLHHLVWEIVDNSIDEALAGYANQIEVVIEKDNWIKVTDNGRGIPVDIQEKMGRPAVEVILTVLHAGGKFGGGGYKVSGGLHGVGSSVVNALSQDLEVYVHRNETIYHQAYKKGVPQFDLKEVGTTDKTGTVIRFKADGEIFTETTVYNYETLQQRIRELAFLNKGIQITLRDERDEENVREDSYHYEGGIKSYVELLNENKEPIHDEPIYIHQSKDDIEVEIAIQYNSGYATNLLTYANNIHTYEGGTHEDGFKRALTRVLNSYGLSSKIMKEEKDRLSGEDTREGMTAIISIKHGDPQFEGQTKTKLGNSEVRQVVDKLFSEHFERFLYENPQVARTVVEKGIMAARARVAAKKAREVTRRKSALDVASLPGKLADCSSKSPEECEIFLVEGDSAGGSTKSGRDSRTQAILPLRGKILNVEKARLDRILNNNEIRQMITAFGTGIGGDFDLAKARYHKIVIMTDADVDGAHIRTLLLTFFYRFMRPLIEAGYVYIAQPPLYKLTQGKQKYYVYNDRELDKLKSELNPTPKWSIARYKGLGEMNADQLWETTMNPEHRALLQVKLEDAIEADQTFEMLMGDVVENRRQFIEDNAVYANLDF

For the first assay, the system named is S. aureus. The experiment in a line: Bacterial susceptibility testing in liquid media (MIC). The assay is classed as cell-based. The following applies: Staphylococcus aureus; against S. aureus; lowest concentration able to reduce growth by 80% or more. From the text: Compounds may be tested for antimicrobial activity by susceptibility testing in liquid media. Compounds may be dissolved in dimethylsulfoxide and tested in 10 doubling dilutions in the susceptibility assays. The organisms used in the assay may be grown overnight on suitable agar media and then suspended in a liquid medium appropriate for the growth of the organism. The suspension can be a 0.5 McFarland and a further 1 in 10 dilution can be made into the same liquid medium to prepare the final organism suspension in 100 μL. Plates can be incubated under appropriate conditions at 37° C. for 24 hrs prior to reading. The Minimum Inhibitory Concentration (MIC) may be determined as the lowest drug concentration able to reduce growth by 80% or more.
Regarding `CCNC(=O)Nc1cc(-c2nc(C(F)(F)F)cs2)c(-c2cnc3c(c2)c(=O)c(C(=O)O)cn3CCO)cn1` [Example 10, 6-{6-[(ethylcarbamoyl)amino]-4-[4-(trifluoromethyl)-1,3-thiazol-2-yl]pyridin-3-yl}-1-(2-hydroxyethyl)-4-oxo-1,4-dihydro-1,8-naphthyridine-3-carboxylic acid], the MIC (commonly the lowest concentration found to suppress growth) is 0.55 µM (≈ 0.302 µg/mL).

In a further assay the target is S. aureus GyrB ATPase (Staphylococcus aureus, UniProt P0A0K8). Description: S. aureus GyrB ATPase inhibition (ammonium molybdate/malachite green phosphate detection). The assay is classed as biochemical. The note with it: 1 μM compound; S. aureus GyrB ATPase. The procedure:
S. aureus GyrB ATPase Inhibition Activity: Compounds may be tested for inhibition of S. aureus GyrB ATPase activity using an ammonium molybdate/malachite green-based phosphate detection assay (Lanzetta, P. A., L. J. Alvarez, P. S. Reinach, and O. A. Candia, 1979, 100: 95-97). Assays can be performed in multiwell plates in 30 μl reactions containing: 50 mM Hepes buffer pH 7.5, 75 mM ammonium acetate, 8.0 mM magnesium chloride, 0.5 mM ethylenediaminetetraacetic acid, 5% glycerol, 1.0 mM 1,4-Dithio-DL-threitol, 200 nM bovine serum albumin, 1.0 μg/ml sheared salmon sperm DNA, 250 pM E. coli GyrA, 250 pM S. aureus GyrB, 250 μM ATP, and compound in dimethylsulfoxide. Reactions can be quenched with 30 μl of ammonium molybdate/malachite green detection reagent containing 1.2 mM malachite green hydrochloride, 8.5 mM ammonium molybdate tetrahydrate, and 1 M hydrochloric acid. Plates can be read in an absorbance plate reader at 650 nm and percent inhibition values can be calculated using dimethylsulfoxide (2%)-containing reactions as 0% inhibition and EDTA-containing ([…]) reactions as 100% inhibition controls. An IC50 measurement of compound potency for each compound can be determined from reactions performed in the presence of 10 different compound concentrations.
With `CCNC(=O)Nc1cc(-c2nc(C(F)(F)F)cs2)c(-c2cc3c(=O)c(C(=O)O)cn([C@H]4CCCN(CCN(CC)CC)C4)c3cn2)cn1` [Example 52, (5)-1-(1-(2-(diethylamino)ethyl)piperidin-3-yl)-6-(6-(3-ethylureido)-4-(4-(trifluoromethyl)thiazol-2-yl)pyridin-3-yl)-4-oxo-1,4-dihydro-1,7-naphthyridine-3-carboxylic acid], the “Percent Inhibition (1 μM)” value is recorded as 105%.

The same assay, now with this note: 1 μM compound; S. aureus GyrB ATPase; read-out: Percent Inhibition (1 μM).
Turning to `CCNC(=O)Nc1cc(-c2nc(C(F)(F)F)cs2)c(-c2cnc3c(c2)c(=O)c(C(=O)OCCCO)cn3CC)cn1` [Example 18, 3-hydroxypropyl 1-ethyl-6-{6-[(ethylcarbamoyl)amino]-4-[4-(trifluoromethyl)-1,3-thiazol-2-yl]pyridin-3-yl}-4-oxo-1,4-dihydro-1,8-naphthyridine-3-carboxylate], the inhibition (usually the change of the read-out against control, counted positive when it falls) at 1 µM amounted to 108%.
Same read-out and setting: then `CCNC(=O)Nc1cc(-c2nc(C(F)(F)F)cs2)c(-c2cnc3c(c2)c(=O)c(C(=O)OCCO)cn3CC)cn1` [Example 17, 2-hydroxyethyl 1-ethyl-6-{6-[(ethylcarbamoyl)amino]-4-[4-(trifluoromethyl)-1,3-thiazol-2-yl]pyridin-3-yl}-4-oxo-1,4-dihydro-1,8-naphthyridine-3-carboxylate], with 106%; and `CCNC(=O)Nc1cc(-c2nc(C(F)(F)F)cs2)c(-c2cnc3c(c2)c(=O)c(C(=O)O)cn3[C@H]2CCCN(CCN3CCOCC3)C2)cn1` [Example 31], with 104%.
The same measure, in the same setting: then `CCNC(=O)Nc1cc(-c2nc(C(F)(F)F)cs2)c(-c2cnc3c(c2)c(=O)c(C(=O)O)cn3[C@H](COP(=O)(O)O)CC(C)C)cn1` [Example 25, 6-{6-[(ethylcarbamoyl)amino]-4-[4-(trifluoromethyl)-1,3-thiazol-2-yl]pyridin-3-yl}-1-[(2S)-4-methyl-1-(phosphonooxy)pentan-2-yl]-4-oxo-1,4-dihydro-1,8-naphthyridine-3-carboxylic acid], with 108%; and `CCNC(=O)Nc1cc(-c2nc(C(F)(F)F)cs2)c(-c2cnc3c(c2)c(=O)c(C(=O)O)cn3C[C@@H]2CCCN2CC)cn1` [Example 32], with 103%.
On the same count and under the same terms, then `CCNC(=O)Nc1cc(-c2nc(C(F)(F)F)cs2)c(-c2cc3c(=O)c(C(=O)O)cn([C@H](CO)C(C)(C)C)c3nc2N2CCC(N)C2)cn1` (stereo partly drawn) [Example 78, 7-(3-aminopyrrolidin-1-yl)-6-(6-(3-ethylureido)-4-(4-(trifluoromethyl)thiazol-2-yl)pyridin-3-yl)-1-((S)-1-hydroxy-3,3-dimethylbutan-2-yl)-4-oxo-1,4-dihydro-1,8-naphthyridine-3-carboxylic acid], with 98%.
Take `CCNC(=O)Nc1cc(-c2nc(C(F)(F)F)cs2)c(-c2cc3c(=O)c(C(=O)O)cn([C@@H]4CCCN(CCN(CC)CC)C4)c3cn2)cn1` [Example 53]: the inhibition at 1 µM stood at 103%.
The same measure, in the same setting: then `CCNC(=O)Nc1cc(-c2nc(-c3ccccc3)cs2)c(-c2cc3c(=O)c(C(=O)O)cn([C@H]4CCCN(CCN5CCOCC5)C4)c3cn2)cn1` [Example 63], with 105%.
The same measure, in the same setting: then `CCNC(=O)Nc1cc(-c2nc(C(F)(F)F)cs2)c(-c2cnc3c(c2)c(=O)c(C(=O)O)cn3C2CC2)cn1` [Example 9, 1-Cyclopropyl-6-{6-[(ethylcarbamoyl)amino]-4-[4-(trifluoromethyl)-1,3-thiazol-2-yl]pyridin-3-yl}-4-oxo-1,4-dihydro-1,8-naphthyridine-3-carboxylic acid], with 96%; and `CCNC(=O)Nc1cc(-c2nc(C(F)(F)F)cs2)c(-c2cnc3c(c2)c(=O)c(C(=O)O)cn3CC2CCN(C)CC2)cn1` [Example 1, 6-(6-(3-Ethylureido)-4-(4-(trifluoromethyl)thiazol-2-yl)pyridin-3-yl)-1-((1-methylpiperidin-4-yl)methyl)-4-oxo-1,4-dihydro-1,8-naphthyridine-3-carboxylic acid], with 107%.
Regarding `CCNC(=O)Nc1cc(-c2nc(C(F)(F)F)cs2)c(-c2cc3c(=O)c(C(=O)O)cn(CC)c3cn2)cn1` [Example 68], the inhibition at 1 µM was 110%.
For the compound `CCNC(=O)Nc1cc(-c2nc(C(F)(F)F)cs2)c(-c2cc3c(=O)c(C(=O)O)cn(C4CCCCC4)c3cn2)cn1` [Example 39, 1-cyclohexyl-6-(6-(3-ethylureido)-4-(4-(trifluoromethyl)thiazol-2-yl)pyridin-3-yl)-4-oxo-1,4-dihydro-1,7-naphthyridine-3-carboxylic acid], the inhibition at 1 µM amounted to 102%.
The same measure, in the same setting: then `CCNC(=O)Nc1cc(-c2nc(C(F)(F)F)cs2)c(-c2cc3c(=O)c(C(=O)O)cn(CC)c3nc2N2CCC(N)C2)cn1` (stereo not shown) [Example 77], with 105%; and `CCNC(=O)Nc1cc(-c2nc(C(F)(F)F)cs2)c(-c2cnc3c(c2)c(=O)c(C(=O)O)cn3CCN(C)C)cn1` [Example 16, 1-[2-(dimethylamino)ethyl]-6-{6-[(ethylcarbamoyl)amino]-4-[4-(trifluoromethyl)-1,3-thiazol-2-yl]pyridin-3-yl}-4-oxo-1,4-dihydro-1,8-naphthyridine-3-carboxylic acid], with 104%.
With `CCNC(=O)Nc1cc(-c2nc(C(F)(F)F)cs2)c(-c2cc3c(=O)c(C(=O)O)cn(C(COC)COC)c3cn2)cn1` [Example 44], the inhibition at 1 µM was found to be 102%.
Still for that read-out and setting: then `CCNC(=O)Nc1cc(-c2nc(-c3ccccc3)cs2)c(-c2cc3c(=O)c(C(=O)O)cn([C@@H]4CCCN(CCN5CCOCC5)C4)c3cn2)cn1` [Example 64], with 100%; and `CCNC(=O)Nc1cc(-c2nc(C(F)(F)F)cs2)c(-c2cc3c(=O)c(C(=O)O)cn([C@H](CO)CC(C)C)c3cn2)cn1` [Example 45], with 107%; and `CCNC(=O)Nc1cc(-c2nc(C(F)(F)F)cs2)c(-c2cc3c(=O)c(C(=O)O)cn(CCN4CCCC4)c3cn2)cn1` [Example 67], with 93%.
In the case of `CCNC(=O)Nc1cc(-c2nc(C(F)(F)F)cs2)c(-c2cc3c(=O)c(C(=O)O)cn(CC)c3nc2N2CCN(C)CC2)cn1` [Example 38, 1-ethyl-6-(6-(3-ethylureido)-4-(4-(trifluoromethyl)thiazol-2-yl)pyridin-3-yl)-7-(4-methylpiperazin-1-yl)-4-oxo-1,4-dihydro-1,8-naphthyridine-3-carboxylic acid], the inhibition at 1 µM stood at 101%.
Same read-out and setting: then `CCNC(=O)Nc1cc(-c2nc(C(F)(F)F)cs2)c(-c2cc3c(=O)c(C(=O)O)cn(C[C@@H]4CCCN4CC)c3nc2N2CCN(C)CC2)cn1` [Example 58], with 104%; and `CCNC(=O)Nc1cc(-c2nc(C(F)(F)F)cs2)c(-c2cc3c(=O)c(C(=O)O)cn([C@H]4CCCN(CCN5CCOCC5)C4)c3cn2)cn1` [Example 48], with 101%; and `CCNC(=O)Nc1cc(-c2nc(C(F)(F)F)cs2)c(-c2cnc3c(c2)c(=O)c(C(=O)O)cn3CCO)cn1` [Example 10, 6-{6-[(ethylcarbamoyl)amino]-4-[4-(trifluoromethyl)-1,3-thiazol-2-yl]pyridin-3-yl}-1-(2-hydroxyethyl)-4-oxo-1,4-dihydro-1,8-naphthyridine-3-carboxylic acid], with 93%.
Turning to `CCNC(=O)Nc1cc(-c2nc(C(F)(F)F)cs2)c(-c2cc3c(=O)c(C(=O)O)cn(CCN(C)C)c3cn2)cn1` [Example 47], the inhibition at 1 µM is 98%.
On the same count and under the same terms, then `CCNC(=O)Nc1cc(-c2nc(C(F)(F)F)cs2)c(-c2cc3c(=O)c(C(=O)O)cn(CC(C)N4CCOCC4)c3cn2)cn1` (stereo not shown) [Example 43], with 94%.
The same measure, in the same setting: then `CCNC(=O)Nc1cc(-c2nc(C(F)(F)F)cs2)c(-c2cc3c(=O)c(C(=O)O)cn([C@H](CO)C(C)(C)C)c3nc2N2CCN(C)CC2)cn1` [Example 59, (S)-6-(6-(3-ethylureido)-4-(4-(trifluoromethyl)thiazol-2-yl)pyridin-3-yl)-1-(1-hydroxy-3,3-dimethylbutan-2-yl)-7-(4-methylpiperazin-1-yl)-4-oxo-1,4-dihydro-1,8-naphthyridine-3-carboxylic acid], with 108%.

Staying with this assay, now noted: read-out: Percent Inhibition (1 μM).
As for `CCNC(=O)Nc1cc(-c2nc(C(F)(F)F)cs2)c(-c2cnc3c(c2)c(=O)c(C(=O)OCCOP(=O)(O)O)cn3CC)cn1` [Example 20, 2-(phosphonooxy)ethyl 1-ethyl-6-{6-[(ethylcarbamoyl)amino]-4-[4-(trifluoromethyl)-1,3-thiazol-2-yl]pyridin-3-yl}-4-oxo-1,4-dihydro-1,8-naphthyridine-3-carboxylate], the inhibition at 1 µM was determined as 104%.
